In general, IC50 refers to the concentration needed to halve the response being measured.

One assay deals with NF-κB signaling pathway. Kind of assay: Immunoblots of NF-κB signaling pathway molecules in LPS-treated MPAEpiC cells. The format is cell-based, mouse. The settings on record: LPS 200 ng/mL + PNSC928 0, 23.6, and 47.2 µM, 6 h. Here is the method: For LPS treatment, different knockdown (KD) cell lines—Control^KD, CtBP2^KD, p300^KD, and p65^KD, all derived from MPAEpiC—were seeded in 12-well plates and cultured at 37 °C until reaching 80% confluence. The cells were then treated with 200 ng/mL of LPS for 6 h, washed three times with PBS, and subjected to the required experiments. For experiments involving inhibitors of CtBP2, p300, and NF-κB, as well as the compound PNSC928, MPAEpiC, RAW264.7, FL83B, TKPTS, and HL-1 cells were seeded in 12-well plates and cultured at 37 °C to reach 80% confluence. Cells were then cotreated with 200 ng/mL LPS along with varying concentrations of the following chemicals: MTOB (0, 5, 10, or 20 mM), NSC95397 (0, 10, 20, or 40 µM), C646 (0, 3, 6, or 12 µM), A-485 (0, 5, 10, or 20 nM), TPCA1 (0, 150, 300, or 600 nM), BOT64 (0, 1, 2, or 4 µM), or PNSC928 (0, 11.8, 23.6, or 47.2 µM). After 6 h of treatment, cells were washed three times with PBS before proceeding with further experiments.
Cellular and mouse lung tissue lysates were prepared using the RIPA buffer (Thermo Fisher; #PI89900) supplemented with 1 × complete protease inhibitor cocktail (Thermo Fisher; #87,785). Following a 10-minute centrifugation at 13,000 g, proteins (50 µg) from the cleared lysate were resolved via 10% SDS-PAGE. These separated proteins were electroblotted onto PVDF membranes (Thermo Fisher; #88,585). […]
In general terms: In western blotting, separated proteins are transferred to a membrane and probed.

The target in assay [1] is T1, CtBP2-p300^BRD interaction (Mus musculus, UniProt B2RWS6+P56546).
T1 construct: R1 (1-1000 amino acids, aa), R2 (1001–1201 aa), R3 (1202–1810 aa); made in house; host or cells: E. coli BL21
T1 sequence (B2RWS6 1001-1201 limits assumed): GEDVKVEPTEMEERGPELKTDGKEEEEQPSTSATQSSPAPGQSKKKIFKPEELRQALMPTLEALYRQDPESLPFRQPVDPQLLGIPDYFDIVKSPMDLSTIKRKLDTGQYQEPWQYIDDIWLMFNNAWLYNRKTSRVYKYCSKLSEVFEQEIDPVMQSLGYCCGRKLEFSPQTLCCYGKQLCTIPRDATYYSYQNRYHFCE
T1 sequence (P56546 whole entry, the tested form may be a part): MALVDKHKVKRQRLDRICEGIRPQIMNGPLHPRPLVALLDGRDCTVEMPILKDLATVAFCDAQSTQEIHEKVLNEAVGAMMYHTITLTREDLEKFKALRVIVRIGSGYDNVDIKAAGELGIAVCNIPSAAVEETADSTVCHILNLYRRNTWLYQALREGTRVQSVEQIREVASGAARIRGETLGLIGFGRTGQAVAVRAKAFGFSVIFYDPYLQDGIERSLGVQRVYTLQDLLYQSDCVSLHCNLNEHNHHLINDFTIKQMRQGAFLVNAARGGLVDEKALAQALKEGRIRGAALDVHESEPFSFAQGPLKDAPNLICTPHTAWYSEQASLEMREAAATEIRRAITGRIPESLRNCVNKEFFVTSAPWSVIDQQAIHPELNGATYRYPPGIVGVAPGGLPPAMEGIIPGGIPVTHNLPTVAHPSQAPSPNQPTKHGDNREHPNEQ
As to the kind of experiment: AlphaScreen of GST-p300^BRD and His-CtBP2 interaction. Format: binding. Here is the method:
Plasmids pGEX-6P-1-p300^BRD and pET-28a-CtBP2 (Table S2) were transformed into BL21 competent cells. Upon 1 mM isopropyl β-d-1-thiogalactopyranoside (IPTG) induction, GST-p300BRD and His-CtBP2 proteins were isolated via Glutathione Agarose Beads (Thermo Fisher; #16,100) and Ni-NTA Agarose (Thermo Fisher; #R90115), respectively. A comprehensive small molecule library of 4313 compounds derived from various botanical sources, including Lonicera japonica, Forsythia suspense, Houttuynia cordata, Coptis chinensis, Phellodendron, Pulsatilla chinensis, Lygodium japonicum, Plantago asiatica, and Portulaca olerace, was analyzed through mass spectrometry. […] Post addition of 5 µM from each botanical molecule and a 2-hour incubation at 25 °C, the resultant AlphaScreen signals from 96-well plates (PerkinElmer, #6,008,350) were deciphered with an Envision Multilabel Reader (PerkinElmer, #2105-0010).
To probe this interaction, we established an AlphaScreen system that utilized GST-p300^BRD and His-CtBP2, binding to donor and acceptor beads, respectively (Fig. 4C). […] In vitro assays assessed the effects of PNSC928 on the CtBP2-p300^BRD interaction. […] Furthermore, we assessed the impact of combined LPS and PNSC928 treatment on the expression of key molecules in the NF-κB signaling pathway.
On the technique in general: Bead proximity is the source of the signal in Alpha formats.

For `CC(=CCCC1=CCC(C2COC(=O)C2)OC1O)CCC1=C(C)CCCC1(C)C` (stereo not drawn) [PNSC928], in the assay with NF-κB signaling pathway, the “Effect on LPS-induced pIKKα, pIκBα, IκBα levels and nuclear translocation of p65 and p50” value is recorded as “did not alter the effects of LPS”. The compound further had an Alpha signal in assay [1] (high-throughput screening, 5 µM compound, signal reduced from 17,500) of 489. In addition, in assay [1] (read-out: IC50 disrupting CtBP2-p300^BRD interaction), the IC50 worked out at 23.6 ± 3.1 µM.

The values above are taken from paper PMC11191317, “PNSC928, a plant-derived compound, specifically disrupts CtBP2-p300 interaction and reduces inflammation in mice with acute respiratory distress syndrome” (Biology Direct, 2024).
